Data reported in patent US20180071317A1, “USE OF AGENTS THAT ALTER THE PERITUMORAL ENVIRONMENT FOR THE TREATMENT OF CANCER” (SERVICIO ANDALUZ DE SALUD, priority 2011, published 2018).

Experiments:
[1] = tested on: fibroblasts (PHF) co-cultured with human fibrosarcoma tumor cells (HT-1080); assay: Marker expression (IHC) in PHF co-cultured with HT-1080 tumor cells; format: cell-based; conditions: co-culture with HT-1080; SP 1 μM + antagonist 1 μM; 48 h;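 also: cultures grown in fresh human plasma from a healthy donor, six replicates, value is percent of fibroblasts positive for the marker, compared with fibroblasts cultured without tumor cells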
Procedure: (§1) All cultures were maintained 48 hours, following which the same cells were included in paraffin blocks for subsequent analysis of the expression of different markers by immunohistochemistry (see Example 1). […] All experiments were carried out sixfold. Analyzed markers in fibroblast cells (stromal cells) were: TGF-α, TGF-β1, TGF-β2, TGF-β3, SPARC, MMP-3, MMP-7, MMP-9, MMP-11, MMP-13 and MMP-14.

[2] = tested on: fibroblasts (PHF) co-cultured with tumor cells of human pancreatic adenocarcinoma (CAPAN-1); assay: Marker expression (IHC) in PHF co-cultured with CAPAN-1 tumor cells; format: cell-based; conditions: co-culture with CAPAN-1; SP 1 μM + antagonist 1 μM; 48 h;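 also: cultures grown in fresh plasma from a healthy human donor, run in six replicates, value is percent of fibroblasts positive for each marker, compared with fibroblasts cultured alone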
[3] = tested on: human primary fibroblasts (PHF); assay: Marker expression (immunohistochemistry) in human primary fibroblasts with SP alone or with NK1 antagonists; format: cell-based; conditions: SP 1 μM + antagonist 1 μM; 48 h;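 also: primary human dermal fibroblasts, immunostained with rabbit polyclonal antibodies against each marker, value is percentage of stained cells among all cells counted in 20 fields at 400× per section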
Procedure: These PHF were obtained and purified from samples obtained from the dermis of the skin of healthy volunteers as described in De Bari et al (De Bari et al. 2001). Briefly, small pieces of skin dermis were digested in a solution of hyaluronidase (Sigma-Aldrich, USA) at a concentration of 1 mg/ml for 15 minutes at 37° C. and then treated with 6 mg/ml collagenase type IV (Invitrogen) for 2 hours at 37° C. Then, the cells were washed, resuspended in DMEM culture medium with high glucose (Dulbecco's Modified Eagle's Medium, Invitrogen) supplemented with 1% antibiotic-antimycotic (Invitrogen) and 1% pyruvate Sodium (Invitrogen), and seeded in culture dishes at a concentration of 10,000 cells per square centimeter. When the cells reached confluence, adherent cells were detached using 0.5% sterile trypsin (Invitrogen) and used between passages 3 and 9. For tests shown below, the PHF were plated in 24-well plates at a concentration of 25,000 cells per well.
After 48 hours of culture, cells were harvested and paraffin cell-blocks for immunohistochemical analysis were constructed, as previously explained in Example 1.
In immunohistochemical assays the expression of the following markers were studied: TGFα (SAB4502953), TGF1 (SAB4502954), TGFβ2 (SAB4502956), TGFβ3 (SAB4502957), SPARC (HPA002989), MMP-3 (HPA007875) MMP-7 (SAB4501894), MMP-9 (SAB4501896), MMP-11 (SAB4501898), MMP-13 (SAB4501900) and MMP-14 (SAB4501901) using specific antibodies against them. All antibodies used were rabbit polyclonal antibodies obtained from Sigma-Aldrich and were used at a concentration of 1/1000. All experiments were carried out sixfold.
On each of the six sections cell counts were performed in 20 high power fields (400×) through an Olympus microscope (model CX31) to assess the immunostaining. On each of the fields total cell number and number of cells displaying immunostaining were counted, being then the percentage of cells displaying said immunostaining.

[4] = tested on: fibroblast cells in co-culture with cells isolated from primary human tumors; assay: Marker expression (IHC) in fibroblasts co-cultured with primary human tumor cells (colon, pancreatic, lung carcinoma, glioma, multiple myeloma); format: cell-based
Procedure: To check that the interaction of the human primary tumor cells with stromal cells, [human fibroblasts,] stimulates the secretion of substances of importance for survival and tumor progression, co-cultures were performed using stromal cells with human fibroblast-tumor cells obtained directly from primary human tumors.
On this occasion, in order to identify, using immunohistochemical techniques, the secretion of substances of importance for the survival and progression of tumors, the following antibodies were used: TGF-α (SAB4502953), TGF-β1 (SAB4502954), TGF-β2 (SAB4502956), TGF-β3 (SAB4502957), SPARC (HPA002989), MMP-3 (HPA007875), MMP-7 (SAB4501894), MMP-9 (SAB4501896), MMP-11 (SAB4501898) MMP-13 (SAB4501900) and MMP-14 (SAB4501901) using specific antibodies against them. All antibodies used were rabbit polyclonal antibodies obtained from Sigma-Aldrich and were used at a concentration of 1/1000 to achieve these immunohistochemical studies. All experiments were carried out sixfold.

[5] = tested on: fibroblasts (PHF) co-cultured with tumor cells of human breast carcinoma (MCF-7); assay: Marker expression (IHC) in PHF co-cultured with MCF-7 tumor cells; format: cell-based; conditions: co-culture with MCF-7; SP 1 μM + antagonist 1 μM; 48 h;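 also: value is the percentage of fibroblasts positive for each marker, with fibroblasts cultured alone as reference, grown in fresh plasma from a healthy donor, six replicates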
Procedure: as §1

mononuclear cells = assay: Marker expression (immunohistochemistry) in mononuclear blood cells with SP alone or with NK1 antagonists; format: cell-based, human; conditions: SP 1 μM + antagonist 1 μM; 48 h
Source text: Briefly, heparinized blood from healthy donors was centrifuged so as to separate the various components thereof. Red blood cells remained at the bottom of the tube. Above them was a small white layer composed of the white blood cells and above, on top of the tube, the blood plasma. The layer of white cells was distributed in a culture plate of 24 wells by adding in each the same concentration of blood plasma from the same donor, supplemented with 1% antibiotic-antimycotic (Invitrogen). In each well, approximately 1000 cells (PHF) skin from the dermis were further added, obtained as previously described in Example 2. […] After 48 hours of incubation, cells were collected and embedded in paraffin for expression analysis by immunohistochemical techniques (as described in Example 1).
The expression of TGF molecular markers (anti-TGF 2, SAB4502956) and NF-kB (anti-NF-kB, SAB4501992) using specific antibodies against them were analyzed. All antibodies used were rabbit polyclonal antibodies obtained from Sigma Aldrich and were used at a concentration of 1/1000. All experiments were carried out sixfold.

[6] = tested on: fibroblasts (PHF) co-cultured with tumor cells of human endometrial carcinoma (AN3-CA); assay: Marker expression (IHC) in PHF co-cultured with AN3-CA tumor cells; format: cell-based; conditions: co-culture with AN3-CA; SP 1 μM + antagonist 1 μM; 48 h;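 also: cultured in fresh healthy-donor blood plasma with added antibiotic-antimycotic, run in six replicates, values give percent of fibroblasts positive for each marker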
Procedure: as §1

[7] = tested on: fibroblasts of tumors produced by lung carcinoma non small cell human (HCC-44) cells; assay: Marker expression (IHC) in fibroblasts of tumor or peritumoral area, mouse model, HCC-44; format: in vivo; conditions: HCC-44 tumors in mice, 30 mg/kg/day oral, 7 days
Procedure: Subsequently, the expression in fibroblasts tumoral and peritumoral area of molecular markers associated with progression and maintenance of tumors: TGF-α, TGF-β1, TGF-β2, TGF-β3, MMP-7, MMP-11, MMP-14 were analyzed by immunohistochemistry.
Were injected with 2×10^7 cells tumors (corresponding, in each case to each of the tumor types as specified in Table 9) in 200 of PBS subcutaneously μl. […] Mice were randomized into two groups when the tumors reached a volume of 75 mm^3 One group was treated with non-peptide receptor antagonists NK1 and the other with placebo 200μ1. […] Tumors and samples of non-neoplastic stromal areas remote from the tumor were halved, formalin fixed (4%) and then were included in paraffin blocks for analysis by immunohistochemistry.
The expression on fibroblast cells obtained in the animal model was analyzed by immunohistochemistry, of the above markers: TGF-α, TGF-β1, TGF-β2, TGF-β3, MMP-7, MMP-1 1, MMP-14MP-14. […] This process was realized in mice treated with non-peptide antagonists of NK1 receptor and in untreated animals (control).

[8] = tested on: fibroblasts (PHF) co-cultured with tumor cells of human Edwing sarcoma (MHH-ES-1); assay: Marker expression (IHC) in PHF co-cultured with MHH-ES-1 tumor cells; format: cell-based; conditions: PHF co-cultured with MHH-ES-1 + SP + NK1 antagonist
Procedure: as §1

[9] = tested on: fibroblasts (PHF) co-cultivated with tumor cell carcinoma of urinary bladder (5637); assay: Marker expression (IHC) in PHF co-cultured with 5637 tumor cells; format: cell-based, human; conditions: co-culture with 5637; SP 1 μM + antagonist 1 μM; 48 h
Procedure: as §1

[10] = Primary tumor cells (colon carcinoma) co-cultured + fibroblast + SP (1 μM) + NK1 antagonist 1 μM
[11] = co-culture with cells isolated from glioma, SP 1 μM + antagonist 1 μM
[12] = co-culture with cells isolated from lung cancer, SP 1 μM + antagonist 1 μM
[13] = co-culture with cells isolated from multiple myeloma, SP 1 μM + antagonist 1 μM
[14] = co-culture with cells isolated from pancreatic carcinoma, SP 1 μM + antagonist 1 μM

Cc1cc(F)ccc1[C@H]1CNCCN1C(=O)N(C)[C@H](C)c1cc(C(F)(F)F)cc(C(F)(F)F)c1 [Vestipitant]
0%: PHF cells expressing MMP-3 [1] | PHF cells expressing MMP-7 [1] | PHF cells expressing MMP-9 [1] | PHF cells expressing MMP-11 [1] | PHF cells expressing MMP-13 [1] | PHF cells expressing MMP-14 [1] | PHF cells expressing SPARC [1] | PHF cells expressing TGF-α [1] | PHF cells expressing TGF-β1 [1] | PHF cells expressing TGF-β2 [1] | PHF cells expressing TGF-β3 [1] | PHF cells expressing MMP-3 [2] | PHF cells expressing MMP-7 [2] | PHF cells expressing MMP-9 [2] | PHF cells expressing MMP-11 [2] | PHF cells expressing MMP-13 [2] | PHF cells expressing MMP-14 [2] | PHF cells expressing SPARC [2] | PHF cells expressing TGF-α [2] | PHF cells expressing TGF-β1 [2] | PHF cells expressing TGF-β2 [2] | PHF cells expressing TGF-β3 [2] | PHF cells expressing MMP-3 [3] | PHF cells expressing MMP-7 [3] | PHF cells expressing MMP-9 [3] | PHF cells expressing MMP-11 [3] | PHF cells expressing MMP-13 [3] | PHF cells expressing MMP-14 [3] | PHF cells expressing SPARC [3] | PHF cells expressing TGFα [3] | PHF cells expressing TGFβ 1 [3] | PHF cells expressing TGFβ 2 [3] | PHF cells expressing TGFβ 3 [3] | Percentage of fibroblast cells which expressed MMP-3 [4, 10] | Percentage of fibroblast cells which expressed MMP-7 [4, 10] | Percentage of fibroblast cells which expressed MMP-9 [4, 10] | Percentage of fibroblast cells which expressed MMP-11 [4, 10] | Percentage of fibroblast cells which expressed MMP-13 [4, 10] | Percentage of fibroblast cells which expressed MMP-14 [4, 10] | Percentage of fibroblast cells which expressed SPARC [4, 10] | Percentage of fibroblast cells which expressed TGFα [4, 10] | Percentage of fibroblast cells which expressed TGFβ1 [4, 10] | Percentage of fibroblast cells which expressed TGFβ2 [4, 10] | Percentage of fibroblast cells which expressed TGFβ3 [4, 10] | Percentage of fibroblast cells which expressed MMP-3 [4, 11] | Percentage of fibroblast cells which expressed MMP-7 [4, 11] | Percentage of fibroblast cells which expressed MMP-9 [4, 11] | Percentage of fibroblast cells which expressed MMP-11 [4, 11] | Percentage of fibroblast cells which expressed MMP-13 [4, 11] | Percentage of fibroblast cells which expressed MMP-14 [4, 11] | Percentage of fibroblast cells which expressed SPARC [4, 11] | Percentage of fibroblast cells which expressed TGFα [4, 11] | Percentage of fibroblast cells which expressed TGFβ1 [4, 11] | Percentage of fibroblast cells which expressed TGFβ2 [4, 11] | Percentage of fibroblast cells which expressed TGFβ3 [4, 11] | Percentage of fibroblast cells which expressed MMP-3 [4, 12] | Percentage of fibroblast cells which expressed MMP-7 [4, 12] | Percentage of fibroblast cells which expressed MMP-9 [4, 12] | Percentage of fibroblast cells which expressed MMP-11 [4, 12] | Percentage of fibroblast cells which expressed MMP-13 [4, 12] | Percentage of fibroblast cells which expressed MMP-14 [4, 12] | Percentage of fibroblast cells which expressed SPARC [4, 12] | Percentage of fibroblast cells which expressed TGFα [4, 12] | Percentage of fibroblast cells which expressed TGFβ1 [4, 12] | Percentage of fibroblast cells which expressed TGFβ2 [4, 12] | Percentage of fibroblast cells which expressed TGFβ3 [4, 12] | Percentage of fibroblast cells which expressed MMP-3 [4, 13] | Percentage of fibroblast cells which expressed MMP-7 [4, 13] | Percentage of fibroblast cells which expressed MMP-9 [4, 13] | Percentage of fibroblast cells which expressed MMP-11 [4, 13] | Percentage of fibroblast cells which expressed MMP-13 [4, 13] | Percentage of fibroblast cells which expressed MMP-14 [4, 13] | Percentage of fibroblast cells which expressed SPARC [4, 13] | Percentage of fibroblast cells which expressed TGFα [4, 13] | Percentage of fibroblast cells which expressed TGFβ1 [4, 13] | Percentage of fibroblast cells which expressed TGFβ2 [4, 13] | Percentage of fibroblast cells which expressed TGFβ3 [4, 13] | Percentage of fibroblast cells which expressed MMP-3 [4, 14] | Percentage of fibroblast cells which expressed MMP-7 [4, 14] | Percentage of fibroblast cells which expressed MMP-9 [4, 14] | Percentage of fibroblast cells which expressed MMP-11 [4, 14] | Percentage of fibroblast cells which expressed MMP-13 [4, 14] | Percentage of fibroblast cells which expressed MMP-14 [4, 14] | Percentage of fibroblast cells which expressed SPARC [4, 14] | Percentage of fibroblast cells which expressed TGFα [4, 14] | Percentage of fibroblast cells which expressed TGFβ1 [4, 14] | Percentage of fibroblast cells which expressed TGFβ2 [4, 14] | Percentage of fibroblast cells which expressed TGFβ3 [4, 14] | PHF cells expressing MMP-3 [5] | PHF cells expressing MMP-7 [5] | PHF cells expressing MMP-9 [5] | PHF cells expressing MMP-11 [5] | PHF cells expressing MMP-13 [5] | PHF cells expressing MMP-14 [5] | PHF cells expressing SPARC [5] | PHF cells expressing TGF-α [5] | PHF cells expressing TGF-β1 [5] | PHF cells expressing TGF-β2 [5] | PHF cells expressing TGF-β3 [5] | mononuclear cells expressing NF-kB (mononuclear cells) | mononuclear cells expressing TGF-β (mononuclear cells) | PHF cells expressing MMP-3 [6] | PHF cells expressing MMP-7 [6] | PHF cells expressing MMP-9 [6] | PHF cells expressing MMP-11 [6] | PHF cells expressing MMP-13 [6] | PHF cells expressing MMP-14 [6] | PHF cells expressing SPARC [6] | PHF cells expressing TGF-α [6] | PHF cells expressing TGF-β1 [6] | PHF cells expressing TGF-β2 [6] | PHF cells expressing TGF-β3 [6] | fibroblasts expressing MMP-7 [7] | fibroblasts expressing MMP-11 [7] | fibroblasts expressing MMP-14 [7] | fibroblasts expressing TGF-α [7] | fibroblasts expressing TGF-β 1 [7] | fibroblasts expressing TGF-β 2 [7] | fibroblasts expressing TGF-β 3 [7] | cells expressing MMP-3 [8] | cells expressing MMP-7 [8] | cells expressing MMP-9 [8] | cells expressing MMP-11 [8] | cells expressing MMP-13 [8] | cells expressing MMP-14 [8] | cells expressing SPARC [8] | cells expressing TGF-α [8] | cells expressing TGF-β1 [8] | cells expressing TGF-β2 [8] | cells expressing TGF-β3 [8] | PHF cells expressing MMP-3 [9] | PHF cells expressing MMP-7 [9] | PHF cells expressing MMP-9 [9] | PHF cells expressing MMP-11 [9] | PHF cells expressing MMP-13 [9] | PHF cells expressing MMP-14 [9] | PHF cells expressing SPARC [9] | PHF cells expressing TGF-α [9] | PHF cells expressing TGF-β1 [9] | PHF cells expressing TGF-β2 [9] | PHF cells expressing TGF-β3 [9]
